Data as given in patent US11225565B2, “Purification of sugammadex” (SYNTHON B.V., priority 2018, dated 2022).

Tests used:
[1] = Osmolality of sugammadex solution in water (OSMOMAT 3000, freezing point comparison); type: physicochemical; details: concentration 108 mg/ml
Procedure: Osmolality was measured using OSMOMAT 3000 (Gonotec), a solution (concentration 108 mg/ml) of sugammadex in water was used. The osmolality of the solution was obtained by comparison of freezing point of the sugammadex solution and the freezing point of water.

[2] = Sodium content of sugammadex samples by potentiometric titration with HClO4; type: physicochemical; details: sugammadex solution in glacial acetic acid, 3 mg/ml, titrated with 0.1 M HClO4
Procedure: The sodium content was obtained by titration of sugammadex solution in glacial acetic acid (concentration 3 mg/ml) using 0.1 M solution of HClO4 using Titrator 794 DMS Titrino, Metrohm. The endpoint (VEQ) was determined potentiometrically.

| Substance | Osmolality [1] | Sodium content % (wt/wt) based on amount of sugammadex [2] |
| --- | --- | --- |
| 6A,6B,6C,6D,6E,6F,6G,6H-Octakis-S-(2-carboxyethyl)-6A,6B,6C,6D,6E,6F,6G-octasulfanyl-gamma-cyclodextrin octasodium salt [Example 1] | 322 mOsmol/kg | 8.5 % (wt/wt) |
| 6A,6B,6C,6D,6E,6F,6G,6H-Octakis-S-(2-carboxyethyl)-6A,6B,6C,6D,6E,6F,6G-octasulfanyl-gamma-cyclodextrin octasodium salt [Example 2] | 320 mOsmol/kg | 8.5 % (wt/wt) |
| 6A,6B,6C,6D,6E,6F,6G,6H-Octakis-S-(2-carboxyethyl)-6A,6B,6C,6D,6E,6F,6G-octasulfanyl-gamma-cyclodextrin octasodium salt [Example 3] | 349 mOsmol/kg | 8.5 % (wt/wt) |
| 6A,6B,6C,6D,6E,6F,6G,6H-Octakis-S-(2-carboxyethyl)-6A,6B,6C,6D,6E,6F,6G-octasulfanyl-gamma-cyclodextrin octasodium salt [Example 4 of WO2017144734 application, reference compound] | 986 mOsmol/kg | 11.14 % (wt/wt) |
| 6A,6B,6C,6D,6E,6F,6G,6H-Octakis-S-(2-carboxyethyl)-6A,6B,6C,6D,6E,6F,6G-octasulfanyl-gamma-cyclodextrin octasodium salt [Example 4] | 346 mOsmol/kg | 8.5 % (wt/wt) |
| 6A,6B,6C,6D,6E,6F,6G,6H-Octakis-S-(2-carboxyethyl)-6A,6B,6C,6D,6E,6F,6G-octasulfanyl-gamma-cyclodextrin octasodium salt [Example 5] | 335 mOsmol/kg | 8.5 % (wt/wt) |
| 6A,6B,6C,6D,6E,6F,6G,6H-Octakis-S-(2-carboxyethyl)-6A,6B,6C,6D,6E,6F,6G-octasulfanyl-gamma-cyclodextrin octasodium salt [Example 6] | 348 mOsmol/kg | 8.5 % (wt/wt) |
